Source: the NIST ThermoML archive (doi:10.1021/acs.jced.9b00396)

Conditions: Liquid; for speed of sound: Frequency=3 MHz, Single path-length method; for mass density: Vibrating tube method

OCc1ccccc1 [benzenemethanol]
Conditions	mass density [kg/m3]	speed of sound [m/s]
293.15 K, 100 kPa	1045.6	1541
298.15 K, 100 kPa	1041.8	1526
298.15 K, 500 kPa	1042	–
298.15 K, 1000 kPa	1042	–
298.15 K, 2500 kPa	1043	–
298.15 K, 5000 kPa	1044	–
298.15 K, 7500 kPa	1045	–
298.15 K, 10000 kPa	1046	–
298.15 K, 12500 kPa	1047	–
298.15 K, 15000 kPa	1049	–
298.15 K, 17500 kPa	1050	–
298.15 K, 20000 kPa	1051	–
298.15 K, 22500 kPa	1052	–
298.15 K, 25000 kPa	1053	–
298.15 K, 27500 kPa	1055	–
298.15 K, 30000 kPa	1056	–
298.15 K, 32500 kPa	1057	–
298.15 K, 35000 kPa	1058	–
313.15 K, 100 kPa	1030	1479
318.15 K, 500 kPa	1026	–
318.15 K, 1000 kPa	1026	–
318.15 K, 2500 kPa	1027	–
318.15 K, 5000 kPa	1028	–
318.15 K, 7500 kPa	1030	–
318.15 K, 10000 kPa	1031	–
318.15 K, 12500 kPa	1032	–
318.15 K, 15000 kPa	1034	–
318.15 K, 17500 kPa	1035	–
318.15 K, 20000 kPa	1036	–
318.15 K, 22500 kPa	1037	–
318.15 K, 25000 kPa	1039	–
318.15 K, 27500 kPa	1040	–
318.15 K, 30000 kPa	1041	–
318.15 K, 32500 kPa	1042	–
318.15 K, 35000 kPa	1043	–
333.15 K, 100 kPa	1011.3	1417
338.15 K, 500 kPa	1010	–
338.15 K, 1000 kPa	1010	–
338.15 K, 2500 kPa	1011	–
338.15 K, 5000 kPa	1013	–
338.15 K, 7500 kPa	1014	–
338.15 K, 10000 kPa	1016	–
338.15 K, 12500 kPa	1017	–
338.15 K, 15000 kPa	1018	–
338.15 K, 17500 kPa	1020	–
338.15 K, 20000 kPa	1021	–
338.15 K, 22500 kPa	1023	–
338.15 K, 25000 kPa	1024	–
338.15 K, 27500 kPa	1025	–
338.15 K, 30000 kPa	1026	–
338.15 K, 32500 kPa	1028	–
338.15 K, 35000 kPa	1029	–
358.15 K, 500 kPa	994	–
358.15 K, 1000 kPa	994	–
358.15 K, 2500 kPa	995	–
358.15 K, 5000 kPa	997	–
358.15 K, 7500 kPa	998	–
358.15 K, 10000 kPa	1000	–
358.15 K, 12500 kPa	1001	–
358.15 K, 15000 kPa	1003	–
358.15 K, 17500 kPa	1005	–
358.15 K, 20000 kPa	1006	–
358.15 K, 22500 kPa	1007	–
358.15 K, 25000 kPa	1009	–
358.15 K, 27500 kPa	1010	–
358.15 K, 30000 kPa	1012	–
358.15 K, 32500 kPa	1013	–
358.15 K, 35000 kPa	1014	–
378.15 K, 500 kPa	977	–
378.15 K, 1000 kPa	978	–
378.15 K, 2500 kPa	979	–
378.15 K, 5000 kPa	980	–
378.15 K, 7500 kPa	982	–
378.15 K, 10000 kPa	984	–
378.15 K, 12500 kPa	985	–
378.15 K, 15000 kPa	987	–
378.15 K, 17500 kPa	989	–
378.15 K, 20000 kPa	990	–
378.15 K, 22500 kPa	992	–
378.15 K, 25000 kPa	994	–
378.15 K, 27500 kPa	995	–
378.15 K, 30000 kPa	997	–
378.15 K, 32500 kPa	998	–
378.15 K, 35000 kPa	1000	–
398.15 K, 500 kPa	960	–
398.15 K, 1000 kPa	960	–
398.15 K, 2500 kPa	962	–
398.15 K, 5000 kPa	963	–
398.15 K, 7500 kPa	965	–
398.15 K, 10000 kPa	967	–
398.15 K, 12500 kPa	969	–
398.15 K, 15000 kPa	971	–
398.15 K, 17500 kPa	973	–
398.15 K, 20000 kPa	974	–
398.15 K, 22500 kPa	976	–
398.15 K, 25000 kPa	978	–
398.15 K, 27500 kPa	979	–
398.15 K, 30000 kPa	981	–
398.15 K, 32500 kPa	983	–
398.15 K, 35000 kPa	985	–
418.15 K, 500 kPa	942	–
418.15 K, 1000 kPa	943	–
418.15 K, 2500 kPa	944	–
418.15 K, 5000 kPa	946	–
418.15 K, 7500 kPa	948	–
418.15 K, 10000 kPa	950	–
418.15 K, 12500 kPa	952	–
418.15 K, 15000 kPa	954	–
418.15 K, 17500 kPa	956	–
418.15 K, 20000 kPa	958	–
418.15 K, 22500 kPa	960	–
418.15 K, 25000 kPa	962	–
418.15 K, 27500 kPa	964	–
418.15 K, 30000 kPa	965	–
418.15 K, 32500 kPa	967	–
418.15 K, 35000 kPa	969	–
438.15 K, 500 kPa	924	–
438.15 K, 1000 kPa	924	–
438.15 K, 2500 kPa	926	–
438.15 K, 5000 kPa	928	–
438.15 K, 7500 kPa	930	–
438.15 K, 10000 kPa	933	–
438.15 K, 12500 kPa	935	–
438.15 K, 15000 kPa	937	–
438.15 K, 17500 kPa	939	–
438.15 K, 20000 kPa	941	–
438.15 K, 22500 kPa	944	–
438.15 K, 25000 kPa	946	–
438.15 K, 27500 kPa	948	–
438.15 K, 30000 kPa	949	–
438.15 K, 32500 kPa	952	–
438.15 K, 35000 kPa	953	–
458.15 K, 500 kPa	904	–
458.15 K, 1000 kPa	905	–
458.15 K, 2500 kPa	907	–
458.15 K, 5000 kPa	909	–
458.15 K, 7500 kPa	912	–
458.15 K, 10000 kPa	915	–
458.15 K, 12500 kPa	917	–
458.15 K, 15000 kPa	920	–
458.15 K, 17500 kPa	922	–
458.15 K, 20000 kPa	924	–
458.15 K, 22500 kPa	927	–
458.15 K, 25000 kPa	929	–
458.15 K, 27500 kPa	931	–
458.15 K, 30000 kPa	933	–
458.15 K, 32500 kPa	935	–
458.15 K, 35000 kPa	937	–
473.15 K, 500 kPa	889	–
473.15 K, 1000 kPa	891	–
473.15 K, 2500 kPa	892	–
473.15 K, 5000 kPa	895	–
473.15 K, 7500 kPa	898	–
473.15 K, 10000 kPa	901	–
473.15 K, 12500 kPa	903	–
473.15 K, 15000 kPa	906	–
473.15 K, 17500 kPa	909	–
473.15 K, 20000 kPa	911	–
473.15 K, 22500 kPa	914	–
473.15 K, 25000 kPa	916	–
473.15 K, 27500 kPa	919	–
473.15 K, 30000 kPa	921	–
473.15 K, 32500 kPa	923	–
473.15 K, 35000 kPa	925	–
